The values below come from PMC5762315, “Inhibition of polo-like kinase 4 (PLK4): a new therapeutic option for rhabdoid tumors and pediatric medulloblastoma” (Oncotarget, 2017).

What all share (experiment): biochemical
What all share (type): biochemical

Test [1] deals with various kinases (Homo sapiens, UniProt O75116). To be noted: kinase ROCK2; ZLYTE.
The target in test [2] is various kinases (Homo sapiens, UniProt O96013). The settings on record: PAK4.
In test [3] the target is various kinases (Homo sapiens, UniProt P00519, E255K). To be noted: ABL1 E255K.
various kinases (Homo sapiens, UniProt P00519, E255K), sequence (P00519 whole entry E255K): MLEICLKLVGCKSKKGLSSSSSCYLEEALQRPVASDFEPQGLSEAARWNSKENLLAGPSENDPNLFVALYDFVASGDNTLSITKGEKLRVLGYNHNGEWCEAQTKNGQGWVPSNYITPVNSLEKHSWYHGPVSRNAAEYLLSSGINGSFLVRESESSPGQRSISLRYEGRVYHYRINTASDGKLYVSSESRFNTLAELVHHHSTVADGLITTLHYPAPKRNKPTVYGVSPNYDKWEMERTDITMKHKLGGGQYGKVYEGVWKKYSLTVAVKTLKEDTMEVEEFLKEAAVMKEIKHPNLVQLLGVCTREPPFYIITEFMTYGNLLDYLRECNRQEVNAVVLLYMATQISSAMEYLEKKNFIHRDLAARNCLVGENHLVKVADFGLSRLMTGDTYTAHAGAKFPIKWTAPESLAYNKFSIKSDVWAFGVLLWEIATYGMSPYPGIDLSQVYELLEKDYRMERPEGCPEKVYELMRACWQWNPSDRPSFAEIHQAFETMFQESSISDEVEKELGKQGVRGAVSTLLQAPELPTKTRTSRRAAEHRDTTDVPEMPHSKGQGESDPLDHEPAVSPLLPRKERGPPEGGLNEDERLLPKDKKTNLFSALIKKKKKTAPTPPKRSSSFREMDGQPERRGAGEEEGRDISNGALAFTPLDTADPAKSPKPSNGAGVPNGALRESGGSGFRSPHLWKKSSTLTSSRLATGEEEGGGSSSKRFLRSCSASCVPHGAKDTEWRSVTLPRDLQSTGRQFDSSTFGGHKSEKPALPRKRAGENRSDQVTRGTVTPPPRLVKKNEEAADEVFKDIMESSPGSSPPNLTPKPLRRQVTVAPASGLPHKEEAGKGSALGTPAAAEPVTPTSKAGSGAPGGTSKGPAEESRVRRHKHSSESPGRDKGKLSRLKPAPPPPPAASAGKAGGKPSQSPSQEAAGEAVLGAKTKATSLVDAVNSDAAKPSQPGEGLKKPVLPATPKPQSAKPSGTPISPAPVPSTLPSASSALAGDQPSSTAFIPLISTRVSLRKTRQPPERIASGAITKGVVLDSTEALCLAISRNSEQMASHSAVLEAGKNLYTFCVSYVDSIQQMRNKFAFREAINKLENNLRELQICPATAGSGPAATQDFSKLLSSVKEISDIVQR
In test [4] the target is various kinases (Homo sapiens, UniProt P06213). The settings on record: INSR.
Test [5] deals with various kinases (Homo sapiens, UniProt P15056, V600E). To be noted: BRAF V599E.
Test [6] addresses various kinases (Homo sapiens, UniProt P15735). The settings on record: PHKG2.
The target in test [7] is various kinases (Homo sapiens, UniProt P27361). The settings on record: MAPK3 (ERK1).
In test [8] the target is various kinases (Homo sapiens, UniProt P36888, D835Y). To be noted: FLT3 D835Y.
The target of test [9] is various kinases (Homo sapiens, UniProt P49760). The settings on record: CLK2.
various kinases (Homo sapiens, UniProt P49760), sequence (P49760 whole entry): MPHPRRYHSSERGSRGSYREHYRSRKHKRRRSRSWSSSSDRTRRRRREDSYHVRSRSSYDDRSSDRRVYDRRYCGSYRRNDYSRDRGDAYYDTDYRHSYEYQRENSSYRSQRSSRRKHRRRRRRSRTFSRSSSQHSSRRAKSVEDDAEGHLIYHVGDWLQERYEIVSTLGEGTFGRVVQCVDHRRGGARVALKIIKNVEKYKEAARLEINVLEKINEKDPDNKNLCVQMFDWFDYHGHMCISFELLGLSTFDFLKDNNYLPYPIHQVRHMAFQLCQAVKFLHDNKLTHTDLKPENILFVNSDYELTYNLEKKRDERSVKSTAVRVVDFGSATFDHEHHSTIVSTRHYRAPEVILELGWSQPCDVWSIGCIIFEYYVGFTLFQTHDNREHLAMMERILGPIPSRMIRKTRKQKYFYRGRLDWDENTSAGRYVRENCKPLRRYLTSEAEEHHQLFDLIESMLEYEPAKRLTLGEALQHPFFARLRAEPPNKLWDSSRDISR
Test [10] concerns the target T1, various kinases (Homo sapiens, UniProt Q05513).
T1 sequence (Q05513 1-592): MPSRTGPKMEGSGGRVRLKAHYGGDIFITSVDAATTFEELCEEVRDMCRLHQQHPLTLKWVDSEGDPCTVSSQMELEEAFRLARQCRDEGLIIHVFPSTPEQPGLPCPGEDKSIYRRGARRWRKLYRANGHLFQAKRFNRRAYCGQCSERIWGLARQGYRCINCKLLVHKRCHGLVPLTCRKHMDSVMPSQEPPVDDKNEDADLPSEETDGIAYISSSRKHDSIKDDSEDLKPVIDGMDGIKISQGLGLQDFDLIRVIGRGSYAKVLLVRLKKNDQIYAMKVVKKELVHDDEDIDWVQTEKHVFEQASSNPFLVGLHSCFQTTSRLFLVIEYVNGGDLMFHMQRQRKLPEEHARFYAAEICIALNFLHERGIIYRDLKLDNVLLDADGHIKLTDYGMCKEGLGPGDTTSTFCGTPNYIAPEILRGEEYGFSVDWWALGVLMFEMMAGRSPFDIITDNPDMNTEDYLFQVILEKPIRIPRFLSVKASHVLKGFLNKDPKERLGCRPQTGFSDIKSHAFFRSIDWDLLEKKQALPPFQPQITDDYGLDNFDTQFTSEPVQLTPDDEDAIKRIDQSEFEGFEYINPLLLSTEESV
The settings on record: kinase PRKCZ (PKC zeta); ZLYTE.

Test [11] deals with various kinases (Homo sapiens, UniProt Q12851). The settings on record: MAP4K2 (GCK).
Test [12] concerns the target T2, various kinases (Homo sapiens, UniProt Q15139).
T2 sequence (Q15139 1-912): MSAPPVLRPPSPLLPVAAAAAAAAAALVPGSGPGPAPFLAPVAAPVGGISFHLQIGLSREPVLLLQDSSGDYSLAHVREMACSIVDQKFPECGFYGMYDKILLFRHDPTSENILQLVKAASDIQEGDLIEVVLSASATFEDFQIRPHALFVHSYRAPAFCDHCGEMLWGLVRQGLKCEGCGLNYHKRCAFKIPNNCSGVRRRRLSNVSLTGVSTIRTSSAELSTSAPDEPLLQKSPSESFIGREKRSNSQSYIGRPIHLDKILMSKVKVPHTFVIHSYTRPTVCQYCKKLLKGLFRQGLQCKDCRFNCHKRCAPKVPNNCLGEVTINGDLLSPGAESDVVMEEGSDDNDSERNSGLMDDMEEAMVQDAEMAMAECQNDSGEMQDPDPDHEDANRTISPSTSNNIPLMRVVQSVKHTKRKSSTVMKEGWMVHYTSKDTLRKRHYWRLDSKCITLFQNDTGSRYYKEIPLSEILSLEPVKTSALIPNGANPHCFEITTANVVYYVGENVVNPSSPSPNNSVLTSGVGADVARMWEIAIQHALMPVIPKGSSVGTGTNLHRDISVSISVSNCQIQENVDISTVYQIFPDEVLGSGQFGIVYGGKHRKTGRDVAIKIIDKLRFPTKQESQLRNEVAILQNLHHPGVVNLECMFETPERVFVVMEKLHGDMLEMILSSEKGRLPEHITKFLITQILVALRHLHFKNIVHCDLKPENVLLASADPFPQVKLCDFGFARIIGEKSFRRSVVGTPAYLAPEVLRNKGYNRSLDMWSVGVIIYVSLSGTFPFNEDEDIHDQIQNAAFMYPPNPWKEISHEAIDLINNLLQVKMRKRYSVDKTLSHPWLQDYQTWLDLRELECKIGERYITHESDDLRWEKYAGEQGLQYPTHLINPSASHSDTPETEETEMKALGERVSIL
The settings on record: kinase PRKD1 (PKC mu); ZLYTE.

For test [13], the target named is various kinases (Homo sapiens, UniProt Q96L34). The settings on record: MARK4.
various kinases (Homo sapiens, UniProt Q96L34), sequence (Q96L34 whole entry): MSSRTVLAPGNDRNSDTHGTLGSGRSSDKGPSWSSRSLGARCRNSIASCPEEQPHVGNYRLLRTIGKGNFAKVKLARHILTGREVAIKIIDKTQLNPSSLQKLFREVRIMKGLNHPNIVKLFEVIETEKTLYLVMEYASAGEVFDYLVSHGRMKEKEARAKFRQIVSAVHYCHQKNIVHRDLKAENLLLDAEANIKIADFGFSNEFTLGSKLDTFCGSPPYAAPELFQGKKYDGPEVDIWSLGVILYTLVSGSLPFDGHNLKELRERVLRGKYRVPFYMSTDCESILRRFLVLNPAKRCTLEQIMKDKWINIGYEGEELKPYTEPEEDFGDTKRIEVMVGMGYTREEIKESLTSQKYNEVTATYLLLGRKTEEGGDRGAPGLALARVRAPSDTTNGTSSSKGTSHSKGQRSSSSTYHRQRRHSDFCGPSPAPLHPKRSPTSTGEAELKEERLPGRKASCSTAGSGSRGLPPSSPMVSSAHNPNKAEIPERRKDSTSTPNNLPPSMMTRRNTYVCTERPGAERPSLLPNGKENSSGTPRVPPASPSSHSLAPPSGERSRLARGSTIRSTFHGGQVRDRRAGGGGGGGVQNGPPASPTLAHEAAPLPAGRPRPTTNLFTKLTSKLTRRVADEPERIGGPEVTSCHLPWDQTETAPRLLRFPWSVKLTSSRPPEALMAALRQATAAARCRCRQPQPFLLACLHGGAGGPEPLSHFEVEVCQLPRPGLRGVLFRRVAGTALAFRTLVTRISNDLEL
Test [14] has as its target various kinases (Homo sapiens, UniProt Q9BUB5). To be noted: MKNK1 (MNK1).

Where “and” joins values, the source holds several entries; their conditions need not be identical. Equal entries are not always repeated.
For % Inhibition Average in this document: test concentration or dose not given here.
For % Inhibition Duplicate #1 in this document: test concentration or dose not given here.
For % Inhibition Duplicate #2 in this document: test concentration or dose not given here.

various kinases (Homo sapiens, UniProt O75116), sequence (O75116 whole entry): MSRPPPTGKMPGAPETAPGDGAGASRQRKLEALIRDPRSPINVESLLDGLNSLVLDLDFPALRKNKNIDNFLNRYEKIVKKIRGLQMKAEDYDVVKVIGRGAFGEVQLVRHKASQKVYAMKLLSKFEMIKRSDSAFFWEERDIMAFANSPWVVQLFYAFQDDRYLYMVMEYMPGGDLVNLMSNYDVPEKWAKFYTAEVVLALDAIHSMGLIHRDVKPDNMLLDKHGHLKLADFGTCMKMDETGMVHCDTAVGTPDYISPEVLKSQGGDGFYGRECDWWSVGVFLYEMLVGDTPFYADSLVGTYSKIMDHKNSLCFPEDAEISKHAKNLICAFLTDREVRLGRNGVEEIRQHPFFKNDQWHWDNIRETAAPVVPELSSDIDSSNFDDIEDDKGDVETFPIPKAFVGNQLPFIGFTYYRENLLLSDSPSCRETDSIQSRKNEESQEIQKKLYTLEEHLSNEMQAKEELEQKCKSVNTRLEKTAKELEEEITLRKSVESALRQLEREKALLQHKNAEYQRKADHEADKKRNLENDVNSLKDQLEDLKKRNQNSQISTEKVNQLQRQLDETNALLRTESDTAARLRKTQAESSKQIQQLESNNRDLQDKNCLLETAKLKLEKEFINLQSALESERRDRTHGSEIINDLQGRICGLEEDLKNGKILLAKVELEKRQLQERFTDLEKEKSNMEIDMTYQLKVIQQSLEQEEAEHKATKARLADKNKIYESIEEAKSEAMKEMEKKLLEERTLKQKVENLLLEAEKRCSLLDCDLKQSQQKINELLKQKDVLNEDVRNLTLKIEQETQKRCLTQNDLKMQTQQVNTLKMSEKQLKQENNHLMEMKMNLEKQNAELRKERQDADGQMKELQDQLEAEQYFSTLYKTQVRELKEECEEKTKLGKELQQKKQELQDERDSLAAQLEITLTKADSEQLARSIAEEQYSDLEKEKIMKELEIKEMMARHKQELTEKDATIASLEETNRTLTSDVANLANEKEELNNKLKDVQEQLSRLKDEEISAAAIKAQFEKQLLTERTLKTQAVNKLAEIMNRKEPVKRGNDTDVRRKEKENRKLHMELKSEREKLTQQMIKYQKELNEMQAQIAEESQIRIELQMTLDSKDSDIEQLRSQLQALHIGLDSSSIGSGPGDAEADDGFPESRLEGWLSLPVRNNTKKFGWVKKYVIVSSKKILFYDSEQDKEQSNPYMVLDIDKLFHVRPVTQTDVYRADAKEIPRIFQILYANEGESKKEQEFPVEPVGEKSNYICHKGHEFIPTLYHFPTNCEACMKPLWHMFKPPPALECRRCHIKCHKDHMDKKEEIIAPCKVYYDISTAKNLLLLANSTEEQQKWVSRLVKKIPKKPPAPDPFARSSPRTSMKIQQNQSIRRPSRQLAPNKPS
various kinases (Homo sapiens, UniProt O96013), sequence (O96013 whole entry): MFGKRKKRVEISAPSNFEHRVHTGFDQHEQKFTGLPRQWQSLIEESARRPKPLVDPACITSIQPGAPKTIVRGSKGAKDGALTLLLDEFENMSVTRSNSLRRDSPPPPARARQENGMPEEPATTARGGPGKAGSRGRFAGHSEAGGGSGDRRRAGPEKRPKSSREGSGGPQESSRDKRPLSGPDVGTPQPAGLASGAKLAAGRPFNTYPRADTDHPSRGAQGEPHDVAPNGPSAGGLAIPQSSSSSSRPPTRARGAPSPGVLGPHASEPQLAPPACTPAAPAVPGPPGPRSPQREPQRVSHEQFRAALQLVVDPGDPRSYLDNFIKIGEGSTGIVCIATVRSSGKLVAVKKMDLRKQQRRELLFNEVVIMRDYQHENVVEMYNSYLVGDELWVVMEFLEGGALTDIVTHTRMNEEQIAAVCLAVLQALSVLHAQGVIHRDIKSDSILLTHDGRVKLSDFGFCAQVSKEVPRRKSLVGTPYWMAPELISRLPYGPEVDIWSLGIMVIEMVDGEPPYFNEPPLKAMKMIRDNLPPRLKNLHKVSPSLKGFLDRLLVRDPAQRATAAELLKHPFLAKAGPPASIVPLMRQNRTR
various kinases (Homo sapiens, UniProt P15735), sequence (P15735 whole entry): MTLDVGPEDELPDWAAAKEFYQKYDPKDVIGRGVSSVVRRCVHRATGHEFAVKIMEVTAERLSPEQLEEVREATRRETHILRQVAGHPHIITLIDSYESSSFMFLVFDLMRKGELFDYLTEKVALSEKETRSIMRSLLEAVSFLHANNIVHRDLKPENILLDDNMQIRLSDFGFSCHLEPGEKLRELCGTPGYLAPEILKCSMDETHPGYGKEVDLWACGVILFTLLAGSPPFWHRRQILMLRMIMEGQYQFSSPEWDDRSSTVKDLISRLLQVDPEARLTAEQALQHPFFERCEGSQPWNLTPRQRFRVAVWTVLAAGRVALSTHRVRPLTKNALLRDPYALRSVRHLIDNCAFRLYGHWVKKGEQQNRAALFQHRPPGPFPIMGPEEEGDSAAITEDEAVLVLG

On to `COc1ccc2c(c1)[C@]1(C[C@H]1c1ccc3c(/C=C/c4ccc(CN5C[C@@H](C)O[C@@H](C)C5)cc4)n[nH]c3c1)C(=O)N2` [CFI-400945], for which the “% Inhibition Average” value is given as 1% in test [1], -11% in [10] and 0% in [12]. The figures for the “% Inhibition Duplicate #1” value in test [1], in test [10] and in [12] were 1%, -22% and -1%, respectively. The “% Inhibition Duplicate #2” value stood at 1% in test [1], 0% in test [10] and 1% in [12]. The “% Inhibition” value is 10% and 9% in [2]; 39% and 36% in test [3]; 4% and 10% in test [4]; 12% in test [5]; 8% and 7% in test [6]; 4% in test [7]. The “% Inhibition” value is 27% and 29% in test [8]; 0% and 7% in [9]; 43% and 39% in [11]; 8% and 3% in test [13]; 6% and 1% in test [14].
